Test systems include M14 melanoma; KM12 colon; SW-620 colon; SNB-75 CNS; NCI-H226 lung; LOX IMVI melanoma; SF-295 CNS; SF-539 CNS; MDA-MB-231 breast; DU-145 prostate.
What all share (experiment): inhibition of tumour cell growth, NCI panel, 48 h

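Assay format: 96-well plates, 48-hour exposure. Definition used: TGI = concentration required for complete inhibition of growth.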

Turning to `O=S1SC(=S)C2C=CC=CC21` (stereo not given), the TGI in the experiment with M14 melanoma, in the experiment with KM12 colon, in the experiment with SW-620 colon, in the experiment on SNB-75 CNS, in the experiment with NCI-H226 lung and in the experiment with LOX IMVI melanoma was more than 100 µM in each case. The TGI in the experiment with SF-295 CNS, in the experiment on SF-539 CNS, in the experiment on MDA-MB-231 breast and in the experiment on DU-145 prostate was more than 100 µM each time.

In the case of `CCOC(=O)NC(Nc1c(F)c(F)c(F)c(F)c1F)(C(F)(F)F)C(F)(F)F`, the TGI in the experiment with M14 melanoma, with KM12 colon, in the experiment with SW-620 colon, in the experiment with SNB-75 CNS, in the experiment on NCI-H226 lung and in the experiment on LOX IMVI melanoma was more than 100 µM throughout. The TGI in the experiment with SF-295 CNS, with SF-539 CNS, in the experiment on MDA-MB-231 breast and in the experiment on DU-145 prostate was more than 100 µM in each case.

For the compound `CC(C)N1CN(c2ccccc2)C2(CCN(CCCC(=O)c3ccc(F)cc3)CC2)C1=O`, the TGI with M14 melanoma is 31.1 µM; in the experiment with KM12 colon it was 42.1 µM; in the experiment on SW-620 colon, 24.2 µM; in the experiment on SNB-75 CNS it was more than 91.6 µM; in the experiment with NCI-H226 lung, 46.4 µM; in the experiment with LOX IMVI melanoma it was 20.2 µM. The TGI with SF-295 CNS came to 26.9 µM; in the experiment on SF-539 CNS, 22.1 µM; in the experiment with MDA-MB-231 breast it was 26.6 µM; in the experiment with DU-145 prostate, 24.2 µM.

As for `O=c1c2ccccc2sc2ccccc12`, the TGI in the experiment with M14 melanoma, in the experiment with KM12 colon, with SW-620 colon, with SNB-75 CNS, with NCI-H226 lung and in the experiment on LOX IMVI melanoma was more than 100 µM in each case. Besides, the TGI in the experiment on SF-295 CNS, in the experiment on SF-539 CNS, with MDA-MB-231 breast and in the experiment on DU-145 prostate was more than 100 µM in each case.

Turning to `O=C(CC(=O)Nc1ccccc1)NNC(c1cc(N=Nc2ccc(Br)cc2)ccc1O)P(O)O` (stereo not given), the TGI with M14 melanoma is 3.84 µM; with KM12 colon, more than 10 µM; with SW-620 colon, more than 10 µM; in the experiment on SNB-75 CNS, more than 10 µM; with NCI-H226 lung, 9.43 µM; in the experiment with LOX IMVI melanoma it was more than 10 µM. In addition, the TGI in the experiment on SF-295 CNS, in the experiment on SF-539 CNS, with MDA-MB-231 breast and in the experiment with DU-145 prostate was more than 10 µM in each case.

As to `COc1ccc2c(c1)c(=O)c1c(NCCNCCO)ccc3c(=O)n(CCN(C)C)c(=O)n2c31`, the TGI with M14 melanoma worked out at 1.86 µM; with KM12 colon, 0.831 µM; with SW-620 colon, 5.94 µM; in the experiment on SNB-75 CNS, 0.503 µM; in the experiment with NCI-H226 lung it was 0.912 µM; in the experiment with LOX IMVI melanoma, 1.11 µM. Besides, the TGI in the experiment on SF-295 CNS was determined as 1.84 µM; with SF-539 CNS, 0.612 µM; in the experiment with MDA-MB-231 breast, 0.508 µM; in the experiment with DU-145 prostate, 0.31 µM.

As for `COc1nc2c(N3CCCC3)nc(N3CCNCC3)nc2nc1NCc1ccccc1`, the TGI in the experiment with M14 melanoma stood at 3.03 µM; in the experiment on KM12 colon, 4.68 µM; in the experiment with SW-620 colon, 11.1 µM; in the experiment with SNB-75 CNS, 4.19 µM; in the experiment on NCI-H226 lung, 7.1 µM; in the experiment with LOX IMVI melanoma it was 2.9 µM. Further, the TGI in the experiment with SF-295 CNS worked out at 3.35 µM; with SF-539 CNS it was 3.21 µM; with MDA-MB-231 breast, 3.72 µM; in the experiment on DU-145 prostate, 12.3 µM.

For `CC(C)=CCC[C@@H](C)C1=C(O)C(N)=C(C)C(=O)C1=O`, the TGI with M14 melanoma is more than 73.2 µM; in the experiment on KM12 colon it was more than 100 µM; in the experiment with SW-620 colon it was more than 100 µM; with SNB-75 CNS it was more than 100 µM; in the experiment on NCI-H226 lung, more than 100 µM; in the experiment on LOX IMVI melanoma it was more than 100 µM. Also, the TGI with SF-295 CNS was more than 72.3 µM; in the experiment on SF-539 CNS, 89.5 µM; in the experiment on MDA-MB-231 breast, more than 100 µM; in the experiment with DU-145 prostate, more than 100 µM.

For the compound `CC#CC(O)(C(=O)OC1CC(C)N(C)C(C)(C)C1)C1CCCC1` (stereo not given), the TGI with M14 melanoma, in the experiment on KM12 colon, in the experiment on SW-620 colon, with SNB-75 CNS, in the experiment on NCI-H226 lung and in the experiment on LOX IMVI melanoma was more than 100 µM in each case. The TGI with SF-295 CNS, in the experiment with SF-539 CNS, in the experiment on MDA-MB-231 breast and in the experiment with DU-145 prostate was more than 100 µM in each case.

Consider `O=C(O)CN(CC(=O)O)C(C(=O)O)c1ccccc1` (stereo not given), for which the TGI with M14 melanoma, in the experiment with KM12 colon, with SW-620 colon, in the experiment with SNB-75 CNS, in the experiment on NCI-H226 lung and with LOX IMVI melanoma was more than 100 µM in each case. Further, the TGI with SF-295 CNS, in the experiment with SF-539 CNS, in the experiment with MDA-MB-231 breast and in the experiment on DU-145 prostate was more than 100 µM each time.

Turning to `O=C1C(C(O)(C(F)(F)F)C(F)(F)F)CCC1C(O)(C(F)(F)F)C(F)(F)F` (stereo not given), the TGI in the experiment on M14 melanoma was 47 µM; with KM12 colon, 37.3 µM; in the experiment with SW-620 colon, more than 100 µM; with SNB-75 CNS it was 7.61 µM; in the experiment with NCI-H226 lung, 4.44 µM; with LOX IMVI melanoma, 10.6 µM. Besides, the TGI in the experiment on SF-295 CNS is 21 µM; with SF-539 CNS, more than 43.5 µM; with MDA-MB-231 breast it was 17.9 µM; in the experiment on DU-145 prostate it was more than 100 µM.

With `O=C(OCC1OC(n2nc(Cn3nnc(-c4cccnc4)n3)n(-c3cccc4ccccc34)c2=S)C(OC(=O)c2ccccc2)C1OC(=O)c1ccccc1)c1ccccc1` (stereo not given), the TGI with M14 melanoma, in the experiment with KM12 colon, in the experiment with SW-620 colon, with SNB-75 CNS, with NCI-H226 lung and in the experiment with LOX IMVI melanoma was more than 100 µM each time. Also, the TGI in the experiment on SF-295 CNS, with SF-539 CNS, with MDA-MB-231 breast and with DU-145 prostate was more than 100 µM each time.

Take `N#Cc1c(-c2ccccc2)c2c([nH]c1=O)-c1cc([N+](=O)[O-])ccc1CCC2`: the TGI in the experiment on M14 melanoma was 93.4 µM; with KM12 colon it was more than 100 µM; with SW-620 colon it was more than 100 µM; in the experiment on SNB-75 CNS, 49.9 µM; with NCI-H226 lung, 71.6 µM; with LOX IMVI melanoma, 81.1 µM. The TGI with SF-295 CNS is 63.1 µM; with SF-539 CNS, 82.5 µM; in the experiment with MDA-MB-231 breast, more than 100 µM; in the experiment on DU-145 prostate it was 71.2 µM.

In the case of `CCOC(=O)C1=CC(C)(C(=O)OCC)Nc2c(nc(N)[nH]c2=O)N1` (stereo not given), the TGI with M14 melanoma, in the experiment on KM12 colon, with SW-620 colon, with SNB-75 CNS, with NCI-H226 lung and with LOX IMVI melanoma was more than 10 µM each time. Also, the TGI in the experiment with SF-295 CNS, in the experiment with SF-539 CNS, in the experiment with MDA-MB-231 breast and with DU-145 prostate was more than 10 µM throughout.

On to `CON(C)C(=O)C1CCCO1` (stereo not given), for which the TGI in the experiment with M14 melanoma, in the experiment on KM12 colon, in the experiment with SW-620 colon, with SNB-75 CNS, in the experiment with NCI-H226 lung and with LOX IMVI melanoma was more than 100 µM in each case. The TGI in the experiment on SF-295 CNS, with SF-539 CNS, in the experiment with MDA-MB-231 breast and in the experiment on DU-145 prostate was more than 100 µM in each case.

In the case of `O=C1c2cccc(O)c2C(=O)c2c(OC3OC(CO)C(O)C(O)C3O)cccc21` (stereo not given), the TGI in the experiment with M14 melanoma is 51.3 µM; in the experiment on KM12 colon it was more than 100 µM; with SW-620 colon it was more than 100 µM; with SNB-75 CNS it was 54.6 µM; with NCI-H226 lung it was more than 100 µM; with LOX IMVI melanoma it was more than 100 µM. In addition, the TGI was more than 100 µM in the experiment on SF-295 CNS, 58.1 µM in the experiment on SF-539 CNS, more than 100 µM with MDA-MB-231 breast and more than 100 µM with DU-145 prostate.

Take `C=CC(=O)N1C/C(=C\c2ccc(Cl)cc2)C(=O)/C(=C/c2ccc(Cl)cc2)C1`: the TGI with M14 melanoma worked out at 0.735 µM; with KM12 colon, 0.866 µM; with SW-620 colon, 0.887 µM; in the experiment with SNB-75 CNS it was 1.64 µM; in the experiment on NCI-H226 lung it was 3.03 µM; in the experiment with LOX IMVI melanoma it was 0.229 µM. Further, the TGI in the experiment on SF-295 CNS amounted to 0.917 µM; in the experiment with SF-539 CNS, 0.419 µM; in the experiment with MDA-MB-231 breast it was 1.2 µM; in the experiment on DU-145 prostate, 3.66 µM.

As to `COP(=O)(OC)C(Nc1ccc(Cc2ccc(NC(c3ccco3)P(=O)(OC)OC)cc2)cc1)c1ccco1` (stereo not given), the TGI in the experiment on M14 melanoma is more than 100 µM; with KM12 colon, more than 100 µM; with SW-620 colon it was more than 100 µM; with SNB-75 CNS, 10.2 µM; in the experiment with NCI-H226 lung, more than 100 µM; with LOX IMVI melanoma it was more than 100 µM. The TGI was 82.2 µM in the experiment on SF-295 CNS, 16.2 µM in the experiment on SF-539 CNS, 41.4 µM with MDA-MB-231 breast and more than 100 µM in the experiment with DU-145 prostate.

Consider `CCN(CC)CCO/N=C1\CC[C@H]2[C@@H]3CCc4cc(OC)ccc4[C@H]3CC[C@]12C`, for which the TGI in the experiment on M14 melanoma amounted to 1.82 µM; in the experiment on KM12 colon, 5.86 µM; with SW-620 colon, 3.47 µM; in the experiment on SNB-75 CNS it was 9.25 µM; in the experiment with NCI-H226 lung it was 4.69 µM; in the experiment on LOX IMVI melanoma, 2.04 µM. For the same compound, the TGI in the experiment with SF-295 CNS was determined as 3.78 µM; with SF-539 CNS, 3.92 µM; with MDA-MB-231 breast, 8.54 µM; with DU-145 prostate, 16.7 µM.

As for `C[n+]1c(/C=C/c2ccc(O)c3ncccc23)[se]c2ccccc21`, the TGI is 17.8 µM with M14 melanoma; 25.2 µM in the experiment on KM12 colon; more than 100 µM with SW-620 colon; 34.8 µM in the experiment with SNB-75 CNS; 30.5 µM in the experiment on NCI-H226 lung; 9.08 µM in the experiment on LOX IMVI melanoma. Further, the TGI was 25.1 µM in the experiment on SF-295 CNS, 21.3 µM in the experiment with SF-539 CNS, 8.33 µM with MDA-MB-231 breast and 16.8 µM in the experiment with DU-145 prostate.

For the origin of these results see PubChem BioAssay (NCI).
